This is an account of results in patent publication US8435978B2, “Substituted sulfonamide compounds” (Gruenenthal GmbH, priority 2006, dated 2013).

Structures can show the parent of a compound that is named as a salt.

The target of one assay is T1, human B1R receptor (Homo sapiens, UniProt P46663).
T1 construct: host or cells: CHO K1 cells (Chinese hamster ovary), stably transfected
T1 sequence (P46663 1-353): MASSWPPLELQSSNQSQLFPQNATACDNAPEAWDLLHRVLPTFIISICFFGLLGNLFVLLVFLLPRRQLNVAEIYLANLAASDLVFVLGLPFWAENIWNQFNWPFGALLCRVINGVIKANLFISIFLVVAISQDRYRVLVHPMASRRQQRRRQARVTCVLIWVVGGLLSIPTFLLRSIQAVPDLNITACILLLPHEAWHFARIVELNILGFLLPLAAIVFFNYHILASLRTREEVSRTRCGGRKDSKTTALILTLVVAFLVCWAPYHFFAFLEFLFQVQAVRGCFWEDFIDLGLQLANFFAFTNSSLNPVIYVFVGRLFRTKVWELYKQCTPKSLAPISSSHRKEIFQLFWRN
Nature of the assay: Functional study on the bradykinin receptor 1 (B1R), FLIPR Ca2+ assay, hB1R cells. The assay is classed as cell-based. The following applies: agonist Lys-Des-Arg9-bradykinin 0.5 nM, % inhibition compared with the maximum achievable inhibition; for inhibition at 10 µM: CHO-K1, test substance 10 μM, read-out: B1R Antagonism, human [10 μM] % Inhibition; for B1R Antagonism, human [10 μM] % Inhibition: test substance 10 μM, hB1R CHO K1 cells. Summed up:
(§1)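 Readout: peak Fluo-4 Ca2+ fluorescence, FLIPR. Stable CHO K1 hB1R or rB1R cells; cpd 10 μM, 10 min preincubation, then agonist (hB1R: Lys-Des-Arg9-BK 0.5 nM; rB1R: Des-Arg9-BK 100 nM). Value = % inhibition relative to maximal achievable inhibition.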

In the next assay the target is T2, B1R receptor of the rat (Rattus norvegicus, UniProt P97583).
T2 construct: host or cells: CHO K1 cells (Chinese hamster ovary), stably transfected
T2 sequence (P97583 1-337): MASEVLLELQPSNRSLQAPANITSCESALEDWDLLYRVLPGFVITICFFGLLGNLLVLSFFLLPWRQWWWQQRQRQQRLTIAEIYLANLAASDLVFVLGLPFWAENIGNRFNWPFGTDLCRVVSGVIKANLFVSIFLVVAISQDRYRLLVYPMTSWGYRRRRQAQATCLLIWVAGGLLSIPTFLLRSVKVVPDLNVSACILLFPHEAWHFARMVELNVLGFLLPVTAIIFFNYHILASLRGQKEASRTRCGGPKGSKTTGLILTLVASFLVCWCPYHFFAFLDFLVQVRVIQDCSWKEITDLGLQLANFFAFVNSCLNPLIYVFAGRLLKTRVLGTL
Nature of the assay: Functional study on the bradykinin receptor 1 (B1R), FLIPR Ca2+ assay, rB1R cells. In kind it is cell-based. The following applies: agonist Des-Arg9-bradykinin 100 nM, % inhibition compared with the maximum achievable inhibition; for inhibition at 10 µM: CHO-K1, test substance 10 μM, read-out: B1R Antagonism, rat [10 μM] % Inhibition; for B1R Antagonism, rat [10 μM] % Inhibition: test substance 10 μM, rB1R CHO K1 cells. Summed up: as §1

As usually defined, the inhibition is the drop in the measured response relative to a control, in per cent. Turning to `N#CCCN1CCN(C(=O)COCC2CCCCN2S(=O)(=O)c2c(Cl)cccc2Cl)CC1` (stereo not shown) [Example 506, 3-(4-(2-((1-(2,6-dichlorophenylsulfonyl)piperidin-2-yl)methoxy)acetyl)piperazin-1-yl)propanenitrile], the inhibition at 10 µM at human B1R receptor was 98.3%; at B1R receptor of the rat, 98.9%.

Consider `O=C(COCC1CCCN1S(=O)(=O)c1c(Cl)cc(Cl)cc1Cl)N1CCC(N2CCCCC2)CC1` (stereo not shown) [Example 298, 1-(1,4′-bipiperidin-1-yl)-2-((1-(2,4,6-trichlorophenylsulfonyl)pyrrolidin-2-yl)methoxy)ethanone], for which, at human B1R receptor, the “B1R Antagonism, human [10 μM] % Inhibition” value stood at 105.09%. For the same compound, on B1R receptor of the rat, the “B1R Antagonism, rat [10 μM] % Inhibition” value worked out at 103.58%.

With `COc1cc(C)c(S(=O)(=O)N2CCC[C@H]2COCC(=O)N2CCC(CCN3CCCC3)CC2)c(C)c1` [Example 190, (S)-2-((1-(4-methoxy-2,6-dimethylphenylsulfonyl)pyrrolidin-2-yl)methoxy)-1-(4-(2-(pyrrolidin-1-yl)ethyl)piperidin-1-yl)ethanone hydrochloride], the inhibition at 10 µM on human B1R receptor and on B1R receptor of the rat was 102% throughout.

Take `CCN1CCN(c2ccc(NC(=O)COCC3CCCCN3S(=O)(=O)c3ccc(OC)cc3)cc2)CC1` (stereo not shown) [Example 555, N-(4-(4-ethylpiperazin-1-yl)phenyl)-2-((1-(4-methoxyphenylsulfonyl)piperidin-2-yl)methoxy)acetamide]: the values for the inhibition at 10 µM at human B1R receptor and at B1R receptor of the rat were 62.5% and 102%, respectively.

As to `O=C(COCC1CCCCN1S(=O)(=O)c1ccc(Cl)c(Cl)c1)N1CCN(Cc2ccc3c(c2)OCO3)CC1` (stereo not shown) [Example 39, 1-(4-benzo[1,3]dioxol-5-ylmethyl-piperazin-1-yl)-2-[1-(3,4-dichloro-phenylsulfonyl)-piperidin-2-ylmethoxy]-ethanone], the values for the inhibition at 10 µM on human B1R receptor and at B1R receptor of the rat were 73.2% and 0%, respectively.

With `COc1cc(C)c(S(=O)(=O)N2CCCCC2COCC(=O)Nc2nc3ccccc3n2C)c(C)c1` (stereo not shown) [Example 371, 2-((1-(4-methoxy-2,6-dimethylphenylsulfonyl)piperidin-2-yl)methoxy)-N-(1-methyl-1H-benzo[d]imidazol-2-yl)acetamide], the inhibition at 10 µM at human B1R receptor turned out to be 0.38%; on B1R receptor of the rat, 101%.

With `COc1ccc(S(=O)(=O)N2Cc3ccccc3CC2COCC(=O)N2CCC(CCN3CCCCC3)CC2)cc1` (stereo not shown) [Example 69], the “B1R Antagonism, human [10 μM] % Inhibition” value on human B1R receptor was 53.64%. Also, the “B1R Antagonism, rat [10 μM] % Inhibition” value at B1R receptor of the rat is recorded as 82.89%.

With `COc1cc(C)c(S(=O)(=O)N2CCCCC2COCC(=O)N2CCC(c3ccccn3)C2)c(C)c1` (stereo not shown) [Example 236, 2-((1-(4-methoxy-2,6-dimethylphenylsulfonyl)piperidin-2-yl)methoxy)-1-(3-(pyridin-2-yl)pyrrolidin-1-yl)ethanone], the inhibition at 10 µM on human B1R receptor worked out at 95.9%; at B1R receptor of the rat, 99.6%.

As to `COc1cccc(N2CCN(C(=O)COCC3CCCN3S(=O)(=O)c3c(C)cc(OC)cc3C)CC2)c1` (stereo not shown) [Example 306, 2-((1-(4-methoxy-2,6-dimethylphenylsulfonyl)pyrrolidin-2-yl)methoxy)-1-(4-(3-methoxyphenyl)piperazin-1-yl)ethanone], the inhibition at 10 µM on human B1R receptor stood at 104%; on B1R receptor of the rat it was 99.2%.

Consider `COc1cc(C)c(S(=O)(=O)N2CCCCC2COCC(=O)N2CCN(Cc3cccc(C#N)c3)CC2)c(C)c1` (stereo not shown) [Example 92, 3-((4-(2-((1-(4-methoxy-2,6-dimethylphenylsulfonyl)piperidin-2-yl)methoxy)acetyl)-piperazin-1-yl)methyl)benzonitrile hydrochloride], for which the inhibition at 10 µM was 103% on human B1R receptor and 101% at B1R receptor of the rat.

`COc1cc(C)c(S(=O)(=O)N2CCCCC2COCC(=O)N(C)C(CN2CCOCC2)c2ccccc2)c(C)c1` (stereo not shown) [Example 368, 2-((1-(4-methoxy-2,6-dimethylphenylsulfonyl)piperidin-2-yl)methoxy)-N-methyl-N-(2-morpholino-1-phenylethyl)acetamide]: the values for the inhibition at 10 µM at human B1R receptor and on B1R receptor of the rat were 62.1% and 101%, respectively.

For `COc1cc(C)c(S(=O)(=O)N2CCCCC2COCC(=O)N2CCNCC2)c(C)c1` (stereo not shown) [Example 102, 2-((1-(4-methoxy-2,6-dimethylphenylsulfonyl)piperidin-2-yl)methoxy)-1-(piperazin-1-yl)ethanone hydrochloride], the inhibition at 10 µM on human B1R receptor came out at 104%; on B1R receptor of the rat, 100%.

Consider `COc1cc(C)c(S(=O)(=O)N2CCCC2COCC(=O)N2CCC(CCN3CCCCC3)CC2)c(C)c1` (stereo not shown) [Example 268, 2-((1-(4-methoxy-2,6-dimethylphenylsulfonyl)pyrrolidin-2-yl)methoxy)-1-(4-(2-(piperidin-1-yl)ethyl)piperidin-1-yl)ethanone], for which the inhibition at 10 µM is 104% on human B1R receptor and 102% on B1R receptor of the rat.

On to `COc1cc(C)c(S(=O)(=O)N2CCCCC2COCC(=O)NCc2ccc(Oc3cnccn3)cc2)c(C)c1` (stereo not shown) [Example 196, 2-((1-(4-methoxy-2,6-dimethylphenylsulfonyl)piperidin-2-yl)methoxy)-N-(4-(pyrazin-2-yloxy)benzyl)acetamide], for which the results for the inhibition at 10 µM at human B1R receptor and on B1R receptor of the rat were 100% and 98.8%, respectively.

On to `COc1cc(C)c(S(=O)(=O)N2CCCCC2COCC(=O)Nc2cccc(N3CCOCC3)c2)c(C)c1` (stereo not shown) [Example 436, 2-((1-(4-methoxy-2,6-dimethylphenylsulfonyl)piperidin-2-yl)methoxy)-N-(3-morpholinophenyl)acetamide], for which the results for the inhibition at 10 µM at human B1R receptor and on B1R receptor of the rat were 39.2% and 102%, respectively.

On to `CN1CCC(N2CCN(C(=O)COCC3CCCCN3S(=O)(=O)c3ccc(C(F)(F)F)cc3Cl)CC2)CC1` (stereo not shown) [Example 138, 2-((1-(2-chloro-4-(trifluoromethyl)phenylsulfonyl)piperidin-2-yl)methoxy)-1-(4-(1-methylpiperidin-4-yl)piperazin-1-yl)ethanone], for which the inhibition at 10 µM stood at 104% at human B1R receptor and 98.5% on B1R receptor of the rat.

In the case of `O=C(COCC1CCCCN1S(=O)(=O)c1c(Cl)cc(Cl)cc1Cl)N1CCC(c2ccncc2)C1` (stereo not shown) [Example 390, 1-(3-(pyridin-4-yl)pyrrolidin-1-yl)-2-((1-(2,4,6-trichlorophenylsulfonyl)piperidin-2-yl)methoxy)ethanone], the inhibition at 10 µM at human B1R receptor is 103%; at B1R receptor of the rat it was 99.8%.

In the case of `CN1CCN(C2CCN(C(=O)COCC3CCCCN3S(=O)(=O)c3ccc(Cl)c(Cl)c3)CC2)CC1` (stereo not shown) [Example 28, 2-[1-(3,4-dichloro-phenylsulfonyl)-piperidin-2-ylmethoxy]-1-[4-(4-methyl-piperazin-1-yl)-piperidin-1-yl]-ethanone], the inhibition at 10 µM on human B1R receptor stood at 84.7%; at B1R receptor of the rat it was 0%.

As to `COc1cc(C)c(S(=O)(=O)N2CCCC2COCC(=O)N(C)C(CN2CCOCC2)c2ccccc2)c(C)c1` (stereo not shown) [Example 304, 2-((1-(4-methoxy-2,6-dimethylphenylsulfonyl)pyrrolidin-2-yl)methoxy)-N-methyl-N-(2-morpholino-1-phenylethyl)acetamide], the inhibition at 10 µM turned out to be 71.1% at human B1R receptor and 102% on B1R receptor of the rat.

In the case of `O=C(COCC1CCCN1S(=O)(=O)c1c(Cl)cccc1Cl)N1CCN(c2cccc(Cl)c2)CC1` (stereo not shown) [Example 354, 1-(4-(3-chlorophenyl)piperazin-1-yl)-2-((1-(2,6-dichlorophenylsulfonyl)pyrrolidin-2-yl)methoxy)ethanone], the inhibition at 10 µM amounted to 62.5% at human B1R receptor and 102% on B1R receptor of the rat.

For `COc1cc(C)c(S(=O)(=O)N2CCCC2COCC(=O)NCC(c2ccc(C(F)(F)F)cc2)N2CCCC2)c(C)c1` (stereo not shown) [Example 496, 2-((1-(4-methoxy-2,6-dimethylphenylsulfonyl)pyrrolidin-2-yl)methoxy)-N-(2-(pyrrolidin-1-yl)-2-(4-(trifluoromethyl)phenyl)ethyl)acetamide], the figures for the inhibition at 10 µM on human B1R receptor and at B1R receptor of the rat were 68.2% and 103%, respectively.

Regarding `O=C(COCC1CCCCN1S(=O)(=O)c1c(Cl)cccc1Cl)N1CCN(CC2CCCCC2)CC1` (stereo not shown) [Example 499, 1-(4-(cyclohexylmethyl)piperazin-1-yl)-2-((1-(2,6-dichlorophenylsulfonyl)piperidin-2-yl)methoxy)ethanone], the values for the inhibition at 10 µM on human B1R receptor and at B1R receptor of the rat were 103% and 101%, respectively.

In the case of `COc1cc(C)c(S(=O)(=O)N2CCCCC2COCC(=O)Nc2cccc3cnccc23)c(C)c1` (stereo not shown) [Example 258], the “B1R Antagonism, human [10 μM] % Inhibition” value at human B1R receptor was determined as 75.25%. Further, on B1R receptor of the rat, the “B1R Antagonism, rat [10 μM] % Inhibition” value stood at 99.75%.
